Assay results: BindingDB's records for doi:10.1021/jm970560h (Warner-Lambert, 1998)

Target: Sterol O-acyltransferase 1 (ACAT) (Mus musculus) (UniProt Q61263)
Test: Inhibition of Acyl coenzyme A:cholesterol acyltransferase by cellular MAI2 assay

Sequence of Sterol O-acyltransferase 1 (ACAT) (Mus musculus) (Q61263 whole entry, looked up): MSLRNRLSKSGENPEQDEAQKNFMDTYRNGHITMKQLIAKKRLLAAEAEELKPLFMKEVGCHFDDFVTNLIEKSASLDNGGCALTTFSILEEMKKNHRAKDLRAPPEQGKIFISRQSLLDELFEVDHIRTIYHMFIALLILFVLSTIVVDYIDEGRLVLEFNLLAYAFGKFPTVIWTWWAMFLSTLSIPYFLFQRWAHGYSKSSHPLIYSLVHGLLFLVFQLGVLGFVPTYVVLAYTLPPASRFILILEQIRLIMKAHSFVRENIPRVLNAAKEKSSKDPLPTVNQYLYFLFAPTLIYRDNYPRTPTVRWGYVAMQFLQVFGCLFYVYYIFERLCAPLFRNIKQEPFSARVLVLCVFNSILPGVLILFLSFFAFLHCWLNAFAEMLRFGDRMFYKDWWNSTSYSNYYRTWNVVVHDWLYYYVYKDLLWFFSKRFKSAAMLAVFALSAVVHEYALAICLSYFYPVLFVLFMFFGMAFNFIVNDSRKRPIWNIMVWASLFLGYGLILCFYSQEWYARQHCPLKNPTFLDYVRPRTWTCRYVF

IC50: 0.02 µM
Structure (SMILES): CCCCCCCCCCCCOC(=O)C(C(=O)Nc1c(C(C)C)cccc1C(C)C)c1ccccc1 (stereo unspecified) [N-(2,6-Diisopropyl-phenyl)-2-phenyl-malonamic acid dodecyl ester]
